These results are taken from US8822407B2, “Preparation of conjugates comprising adenine derivatives and allergenic proteins and their use for specific immunotherapy of allengenic diseases” (Universita' Degli Studi di Firenze, priority 2010, dated 2014).

For one assay, the system named is purified B cells. Briefly: B cell activation (tritiated thymidine incorporation). In kind it is cell-based, human. The protocol: Circulating mononuclear cells (MNC) are isolated by Ficoll-Hypaque density gradient from buffy coats of healthy donors (Servizio Immunotrasfusionale e terapie cellulari, Azienda Ospedaliero Universitaria Pediatrica A. Meyer, Firenze). 200×10^6 MNC are then separated using the commercial CD19 isolation kit (Miltenyi) by the addition of 400 μl iron microbead-bound anti-CD19 monoclonal antibody followed by magnetic separation on LS column. 20×10^6 B cells are isolated by positive selection and are extensively washed by the use of calcium- and magnesium-free PBS and cultured in triplicates at the concentration of 1×10^6/ml/well in complete medium plus 10% foetal calf serum in 96-U plates. […] Plates are incubated in humidified atmosphere at 37° C. for 72 hrs and at the end 0.5 μCi tritiated thymidine is added to each well for further 16 hrs. The incorporated radioactivity is measured as already described in step (f) of Example 4.
On the technique in general: Incorporation of labelled thymidine or its analogues reports DNA synthesis.

For the next assay, the target named is T1, TLR9 (Homo sapiens, UniProt Q9NR96).
T1 construct: expressed in transfected cells; host or cells: HEK293 (transient Nucleofection, Amaxa)
T1 sequence (Q9NR96 26-1032): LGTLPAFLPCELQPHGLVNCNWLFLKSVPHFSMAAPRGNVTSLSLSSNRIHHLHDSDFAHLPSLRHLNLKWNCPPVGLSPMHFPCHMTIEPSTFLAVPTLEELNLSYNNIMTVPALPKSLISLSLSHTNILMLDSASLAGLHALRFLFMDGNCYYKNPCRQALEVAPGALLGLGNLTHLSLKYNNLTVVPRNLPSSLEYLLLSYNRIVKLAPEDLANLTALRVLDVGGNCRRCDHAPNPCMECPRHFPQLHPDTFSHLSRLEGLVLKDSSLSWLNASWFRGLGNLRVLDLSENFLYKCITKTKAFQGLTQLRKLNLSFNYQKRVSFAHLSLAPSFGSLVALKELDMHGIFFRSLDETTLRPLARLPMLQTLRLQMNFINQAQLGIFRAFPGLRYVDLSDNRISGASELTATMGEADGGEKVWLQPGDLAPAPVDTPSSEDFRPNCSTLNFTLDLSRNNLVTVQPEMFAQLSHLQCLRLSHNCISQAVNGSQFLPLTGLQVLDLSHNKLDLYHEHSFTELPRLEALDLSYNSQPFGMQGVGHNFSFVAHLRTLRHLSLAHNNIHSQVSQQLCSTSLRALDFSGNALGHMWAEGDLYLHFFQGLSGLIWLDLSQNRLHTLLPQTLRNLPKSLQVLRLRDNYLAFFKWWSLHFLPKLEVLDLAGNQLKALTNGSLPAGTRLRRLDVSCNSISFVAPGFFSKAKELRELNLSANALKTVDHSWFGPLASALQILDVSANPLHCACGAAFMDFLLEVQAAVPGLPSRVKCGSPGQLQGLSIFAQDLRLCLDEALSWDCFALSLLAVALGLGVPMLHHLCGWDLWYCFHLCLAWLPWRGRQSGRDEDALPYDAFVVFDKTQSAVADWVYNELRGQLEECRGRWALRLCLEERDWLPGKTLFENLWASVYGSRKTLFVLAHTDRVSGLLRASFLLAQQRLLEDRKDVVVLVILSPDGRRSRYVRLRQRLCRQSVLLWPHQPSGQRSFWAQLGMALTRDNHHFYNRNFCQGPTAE
Nature of the assay: TLR9-transfected HEK293 cells, NF-kB luciferase reporter. In kind it is cell-based. The note with it: CpG-ODN 2006 1.3 μM; data not shown. The protocol: (§1) HEK293 cells are detached by trypsin from the plastic surface of the culture bottle, extensively washed with calcium and magnesium-free PBS, counted and adjusted at the concentration 1×10^6 cells/tube in polypropylene V-bottomed tubes. After the final wash, the cells are pelleted and 100 μl transfection buffer (Amaxa) is added together with […], TLR7, TLR8 or TLR9-encoding and ELAM-1 promoter NF-kB luciferase reporter plasmids. The mixture thus obtained is transferred in special cuvettes and transient transfection is obtained in a special apparatus which is able to directly introduce genetic material into the nucleus (Nucleofection®, Amaxa GmbH). The cells are then recovered and cultured at 1×10^5/ml in 48-flat bottomed plates in E-MEM medium plus 5% foetal calf serum for 18 hrs. […] Finally the luciferase activity is measured in the cellular lysates by a commercial kit (Promega).
Background: A reporter such as luciferase makes a cellular process visible.

For another assay, the target named is T2, TLR3 (Homo sapiens, UniProt O15455).
T2 construct: expressed in transfected cells; host or cells: HEK293 (transient Nucleofection, Amaxa)
T2 sequence (O15455 24-904): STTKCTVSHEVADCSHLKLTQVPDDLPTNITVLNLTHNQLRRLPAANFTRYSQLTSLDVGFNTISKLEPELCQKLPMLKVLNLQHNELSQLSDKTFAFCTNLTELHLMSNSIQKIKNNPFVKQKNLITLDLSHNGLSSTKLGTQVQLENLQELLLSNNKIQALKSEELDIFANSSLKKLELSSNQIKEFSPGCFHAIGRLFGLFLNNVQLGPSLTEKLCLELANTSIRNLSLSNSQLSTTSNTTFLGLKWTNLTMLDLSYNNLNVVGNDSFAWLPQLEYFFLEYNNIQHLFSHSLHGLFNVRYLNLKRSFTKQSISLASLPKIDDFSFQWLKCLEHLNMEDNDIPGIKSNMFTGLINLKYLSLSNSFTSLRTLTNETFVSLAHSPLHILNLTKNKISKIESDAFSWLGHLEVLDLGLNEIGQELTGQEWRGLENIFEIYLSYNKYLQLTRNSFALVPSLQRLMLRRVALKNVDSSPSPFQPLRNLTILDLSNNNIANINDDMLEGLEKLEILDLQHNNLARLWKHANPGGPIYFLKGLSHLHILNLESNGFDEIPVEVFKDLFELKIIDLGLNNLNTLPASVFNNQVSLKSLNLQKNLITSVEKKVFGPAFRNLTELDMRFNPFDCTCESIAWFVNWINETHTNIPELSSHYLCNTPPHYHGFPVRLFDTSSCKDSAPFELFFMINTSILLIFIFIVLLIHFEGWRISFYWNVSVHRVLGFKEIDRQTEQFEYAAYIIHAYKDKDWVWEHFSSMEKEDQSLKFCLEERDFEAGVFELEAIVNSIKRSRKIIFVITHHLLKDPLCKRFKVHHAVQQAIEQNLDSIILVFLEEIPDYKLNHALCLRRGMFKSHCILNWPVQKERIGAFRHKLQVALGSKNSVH
Briefly: TLR3-transfected HEK293 cells, NF-kB luciferase reporter. In kind it is cell-based. As to conditions: Poly I:C 50 μg/ml; data not shown. The protocol:
as §1

A further assay deals with purified CD14+ cells. Briefly: Cytokine production by purified CD14+ cells (ELISA of supernatants, 36 hrs). In kind it is cell-based, human. Here is the method: Circulating mononuclear cells (MNC) are isolated by density gradient (Ficoll-Hypaque) using buffy coats from 14 normal donors (Servizio Immunotrasfusionale e terapie cellulari, Azienda Ospedaliera Universitaria A. Meyer, Firenze). 200×10^6 MNC are separated by the use of a commercial kit (CD14 isolation kit, Miltenyi) by the addition of 400 μl anti-CD14 monoclonal antibody bound to iron beads followed by isolation on magnetic columns (LS column). 50×10^6 monocytes are recovered by positive selection and are extensively washed with calcium and magnesium-free sterile PBS and then seeded in complete medium plus 10% foetal calf serum in 24 flat bottomed plates at the concentration of 1×10^6/ml. […] The plates are incubated for 36 hrs at 37° C. in 5% CO2 humidified atmosphere and the supernatants are collected after centrifugation at 1200 rpm, aliquoted and then stored at −20° C. up to the assay. […]
For the determination of cytokines and chemokines of the innate immunity, commercial ELISAs have been used: IL-12p40 (Cytoscreen, Biosource Int, Camarillo, Calif.), IFN-alfa (Cytoscreen), TNF-alfa (Cytoscreen), IL-10 (Pharmingen), IL-6 and CXCL10 (R&D System). 100 μl/well of single supernatants are incubated in flat bottomed plates as specified by the productors and the amounts of the single cytokines are expressed as pg/ml on the basis of a reference curve by using recombinant cytokines.
A general note: ELISA stands for enzyme-linked immunosorbent assay.

Another assay deals with BALB/C and C57BL/6 mice. Briefly: Modification of antibody response in sensitized mice (serum IgE). In kind it is in vivo. As to conditions: mice sensitized i.p. with 10 μg in alum. Here is the method:
Ten BALB/C and ten C57BL/6 6-8 wk-old female mice (Charles River) have been intraperitoneally sensitized at day 0 and d 7 with 10 μg OVA (5 animals per strain) or OVA-conj (5 animals per strain) in the presence of alum. At d 14 and d 18 animals are stimulated intratracheally with 10 μg OVA and after 24 hrs unspecific bronchial hyperreactivity is measured administering first an aerosolized PBS solution to obtain the standard value and then an aerosolized solution containing increasing concentrations of methacolin for 3 min (6.25-12.5-25-50 mg/ml). The pletismograph in which the animal is inserted is able to monitor the values of airflow resistance.
Serum levels of total and OVA-specific IgE have been determined at d 14 and d 18 (before the intratracheal allergic stimulation) in sensitized animals by the use of commercial kits.

Setting [1] is: Table A, Donor #1, LPS, dose not printed in table (100 ng/ml elsewhere in the source).
The mark [2] stands for this setting: Table A, Donor #2, LPS, dose not printed in table (100 ng/ml elsewhere in the source).
[3] abbreviates: Table E, Donor #1, dose 0.1 μg/ml.
The mark [4] stands for this setting: Table E, Donor #2, dose 0.1 μg/ml.

As to CpG-ODN 2006 [reference compound], in the assay with purified B cells (B cell proliferation, concentration 10 μg/ml), the “Stimulation index (mean ± SE)” value is 90.3 ± 7.5. Besides, the “proliferation of purified B lymphocytes (in words)” value in the assay on purified B cells (thymidine incorporation) is reported as “high levels of incorporation of radioactive thymidine”. Besides, at TLR9, the “NF-κB expression in TLR9-transfected HEK293 cells” value is “able to induce NF-κB expression”.
With Poly I:C, the “NF-κB expression in TLR3-expressing HEK293 cells” value on TLR3 is recorded as “activates TLR3-expressing cells”.
In the case of “lipopolysaccharide [LPS, reference compound]”, in the assay with purified CD14+ cells (setting [1]), the IL-6 production amounted to 12905 pg/mL, the IL-10 production was 8140 pg/mL, the IL-12p40 production came to 2725 pg/mL and the TNF-alfa production was 5331 pg/mL. In the assay on purified CD14+ cells (setting [2]), this molecule showed an IL-6 production of 3125 pg/mL, an IL-10 production of 1155 pg/mL, an IL-12p40 production of 6311 pg/mL and a TNF-alfa production of 4619 pg/mL. In the assay with purified CD14+ cells (Table B, dose 1 μg/ml), the “IL-6 production (mean ± SE)” value is 17.5 ± 4.9 ng/mL, the “IL-10 production (mean ± SE)” value was 7.9 ± 1.9 ng/mL, the “IL-12p40 production (mean ± SE)” value is 3.8 ± 1.7 ng/mL and the “TNF-alfa production (mean ± SE)” value turned out to be 7.6 ± 2.7 ng/mL. Also, in the assay on purified CD14+ cells (setting [3]), the IL-6 production came out at 27235 pg/mL, the IL-10 production was 530 pg/mL, the IL-12p40 production is 5627 pg/mL and the TNF-alfa production is 3136 pg/mL. In the assay with purified CD14+ cells (setting [4]), this molecule yielded an IL-6 production of 39499 pg/mL, an IL-10 production of 3000 pg/mL, an IL-12p40 production of 10522 pg/mL and a TNF-alfa production of 14061 pg/mL. For the same molecule, the “cytokine production from purified CD14+ cells (in words)” value in the assay on purified CD14+ cells (text to Tables A and B) is “relevant amounts of modulatory (IL-12) and inflammatory (TNF-alfa and IL-6) cytokines”.

B1: ovalbumin (protein, UniProt P01012 2-386, looked up)
Ovalbumin: GSIGAASMEFCFDVFKELKVHHANENIFYCPIAIMSALAMVYLGAKDSTRTQINKVVRFDKLPGFGDSIEAQCGTSVNVHSSLRDILNQITKPNDVYSFSLASRLYAEERYPILPEYLQCVKELYRGGLEPINFQTAADQARELINSWVESQTNGIIRNVLQPSSVDSQTAMVLVNAIVFKGLWEKAFKDEDTQAMPFRVTEQESKPVQMMYQIGLFRVASMASEKMKILELPFASGTMSMLVLLPDEVSGLEQLESIINFEKLTEWTSSNVMEERKIKVYLPRMKMEEKYNLTSVLMAMGITDVFSSSANLSGISSAESLKISQAVHAAHAEINEAGREVVGSAEAGVDAASVSEEFRADHPFLFCIKHIATNAVLFFGRCVSP
notes: ovalbumin (OVA grade V)
As for B1, the “Total IgE (mean ± SE)” value turned out to be 966 ± 268 pg/mL with BALB/C and C57BL/6 mice (d14 pre-challenge); 680 ± 234 pg/mL in the assay with BALB/C and C57BL/6 mice (d18 post-challenge).
